Results: paper PMC7320145, “Substrate Channeling via a Transient Protein-Protein Complex: The case of D-Glyceraldehyde-3-Phosphate Dehydrogenase and L-Lactate Dehydrogenase” (Scientific Reports, 2020)

Experiments:
[1] = target: T1, rmGAPDH (rabbit muscle GAPDH) (Oryctolagus cuniculus, UniProt P46406); assay: fluorescence titration, average of four read-outs (protein quenching, NADH quenching, FRET, anisotropy); settings: in terms of NADH binding sites on each tetramer; average over sites (enzyme with negative cooperativity)
T1 construct: natural full-length enzyme from rabbit muscle, homotetramer; purified in-house by established protocols or purchased from Sigma; apo-enzyme
Description: fluorescence titration, average of four read-outs (protein quenching, NADH quenching, FRET, anisotropy) on rmGAPDH (rabbit muscle GAPDH)

[2] = target: T2, byGAPDH (baker's yeast GAPDH); assay: as above; design: species or system Saccharomyces cerevisiae; settings: in terms of NADH binding sites on each tetramer
T2 construct: gene TDH3; purified in-house or purchased from Sigma; apo-enzyme
Description: fluorescence titration, average of four read-outs (protein quenching, NADH quenching, FRET, anisotropy) on byGAPDH (baker's yeast GAPDH)

T1 sequence (P46406 whole entry): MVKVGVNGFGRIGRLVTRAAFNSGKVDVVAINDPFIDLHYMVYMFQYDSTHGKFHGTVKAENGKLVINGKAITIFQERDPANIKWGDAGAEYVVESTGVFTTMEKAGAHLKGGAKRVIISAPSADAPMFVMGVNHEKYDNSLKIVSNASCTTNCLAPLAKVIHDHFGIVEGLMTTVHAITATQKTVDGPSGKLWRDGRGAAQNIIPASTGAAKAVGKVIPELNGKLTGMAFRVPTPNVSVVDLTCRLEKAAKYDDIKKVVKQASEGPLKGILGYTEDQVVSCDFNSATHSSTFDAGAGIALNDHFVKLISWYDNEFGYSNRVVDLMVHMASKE

NC(=O)C1=CN([C@@H]2O[C@H](COP(=O)(O)OP(=O)(O)OC[C@H]3O[C@@H](n4cnc5c(N)ncnc54)[C@H](O)[C@@H]3O)[C@@H](O)[C@H]2O)C=CC1 [NADH]
rmGAPDH-NADH KD fluorescence measurements [1]: 0.8 ± 0.06 micro Molar
byGAPDH-NADH KD fluorescence measurements [2]: 8.2 ± 0.5 micro Molar
